The values below come from patent US20250382317A1 (EVEXTA BIO, priority 2022, published 2025).

One data set can be described thus: physchem. As to conditions: pH 7.4, aqueous buffer, thermodynamic from solid.
Data set [1] in a line: Solubility in HCl 0.01N (pH 1.0) and phosphate saline buffer (pH 7.4), LC-MSMS. As to conditions: thermodynamic from solid.
Protocol: (§1) For each compound, three solutions were prepared in HCl 0.01N (pH 1.0) at 500 μM and three solutions in phosphate saline buffer (pH 7.4) at 500 μM. The solutions were prepared by dissolving each compound in the adequate solvent in opaque tubes and stirred 24 hours at room temperature. After 24 hours, for each solution, an aliquot was centrifuged 10 minutes at 3 500 rpm in order to separate the insoluble fraction from the soluble fraction. The supernatant was taken and diluted in H2O (1/20) before injection in LC-MSMS. After HPLC separation, analytes are detected and quantified by mass spectrometry. A standard curve is performed for each test substance. The solubility of each test substance was determined by calculating the concentration of each supernatant according to the standard curve.
The target in the next data set is Cathepsin B (Homo sapiens, UniProt P07858). The data set is described as follows: Cathepsin-B mediated drug release test. In kind it is in vitro ADME. To be noted: 10 units/mL activated Cathepsin B, 25 mM sodium acetate pH 5.5, 37° C., 0-120 min, LC-MS of released free drug (FIG. 1). Here is the method:
Drug release of (Z)-3-(2-(5-bromo-1H-indol-3-yl)-2-cyanovinyl)-4-methoxybenzonitrile from Example 27 was performed using cathepsin B enzyme.
Cathepsin B (50 units/mL) was preincubated in activation buffer containing 25 mM sodium acetate (pH 5.5), 30 mM DTT and 15 mM EDTA for 15 min at 37° C. and then added as a 20% (v/v) addition to initiate each reaction.
Final in vitro cathepsin B reaction mixtures will contain 25 mM sodium acetate (pH 5.5), 10 units/mL activated Cathepsin B, 30 mM DTT and 15 mM EDTA, and 0.5 μg/mL of Example 27 in a 2.5% (v/v) incubation sample background.
Reactions will be terminated by addition of organic solvent and the supernatant analyzed by LC-MS to quantify released free drug.

[2] abbreviates: phosphate saline buffer, pH 7.4, aqueous buffer.
Where [3] appears, read: HCl 0.01N, pH 1, simulated gastric fluid.

Converted amounts (≈) assume the structure as drawn. Counter-ions that a name gives are not always drawn.

Protocol for physchem: as §1

The compound `COc1ccc(C#N)cc1/C=C(\C#N)c1cn(C(=O)OCc2ccc(NC(=O)[C@H](CCCNC(N)=O)NC(=O)[C@@H](NC(=O)C(CS(=O)(=O)O)NC(=O)OC(C)(C)C)C(C)C)cc2)c2ccc(Br)cc12` (some centres unmarked) [Example 24] yielded a solubility in the data set “physchem” of 201 µM (≈ 208 µg/mL).

`COc1ccc(C#N)cc1/C=C(\C#N)c1cn(C(=O)OCc2ccc(O[C@@H]3O[C@H](C(=O)O)[C@@H](O)[C@H](O)[C@H]3O)cc2)c2ccc(Br)cc12` [Example 19, (2S,3S,4S,5R,6S)-6-[4-[[5-bromo-3-[(Z)-1-cyano-2-(5-cyano-2-methoxy-phenyl)vinyl]indole-1-carbonyl]oxymethyl]phenoxy]-3,4,5-trihydroxy-tetrahydropyran-2-carboxylic acid]: in data set [1] (setting [2]), the solubility at 24 h came out at 452 µM (≈ 318 µg/mL). For the compound `COc1ccc(C#N)cc1/C=C(\C#N)c1cn(C(=O)OCc2ccc(NC(=O)[C@H](CCCNC(N)=O)NC(=O)[C@@H](NC(=O)[C@H](CS(=O)(=O)O)NC(=O)CCOCCOCCOCCOCCNC(=O)CCN3C(=O)CC(SC[C@H](NC(C)=O)C(=O)O)C3=O)C(C)C)cc2)c2ccc(Br)cc12` (stereo partly drawn) [Example 27, N-acetyl-S-(1-((R)-2-(((S)-1-(((S)-1-((4-(((5-bromo-3-((Z)-1-cyano-2-(5-cyano-2-methoxyphenyl)vinyl)-1H-indole-1-carbonyl)oxy)methyl)phenyl)amino)-1-oxo-5-ureidopentan-2-yl)amino)-3-methyl-1-oxobutan-2-yl)carbamoyl)-4,20-dioxo-1-sulfo-7,10,13,16-tetraoxa-3,19-diazadocosan-22-yl)-2,5-dioxopyrrolidin-3-yl)-L-cysteine], the “Drug release of (Z)-3-(2-(5-bromo-1H-indol-3-yl)-2-cyanovinyl)-4-methoxybenzonitrile” value on Cathepsin B is “efficient drug release”. In the case of `COc1ccc2c(/C(C#N)=C/c3cc(C#N)ccc3OC)cn(C(=O)CCCCP(=O)([O-])O)c2c1.[Na+]` [Example 11, sodium (Z)-hydrogen5-(3-(1-cyano-2-(5-cyano-2-methoxyphenyl)vinyl)-6-methoxy-1H-indol-1-yl)-5-oxopentylphosphonate], the solubility at 24 h in data set [1] (setting [3]) was 10 µM; in data set [1] (setting [2]) it was 476 µM. The matching figures for `COc1ccc(C#N)cc1/C=C(\C#N)c1cn(C(=O)CCCP(=O)([O-])O)c2ccc(Br)cc12.[Na+]` [Example 8, sodium (Z)-hydrogen4-(5-bromo-3-(1-cyano-2-(5-cyano-2-methoxyphenyl)vinyl)-1H-indol-1-yl)-4 oxobutylphosphonate]: less than 5 µM and 71 µM. `COc1ccc(C#N)cc1/C=C(\C#N)c1cn(C(=O)CCCCP(=O)([O-])O)c2ccc(Br)cc12.[Na+]` [Example 6, Sodium (Z)-hydrogen5-(5-bromo-3-(1-cyano-2-(5-cyano-2-methoxyphenyl)vinyl)-1H-indol-1-yl)-5-oxopentylphosphonate]: the solubility at 24 h was 34 µM in data set [1] (setting [3]) and 206 µM in data set [1] (setting [2]). Take `COc1ccc(C#N)cc1/C=C(\C#N)c1cn(C(=O)CCCP(=O)([O-])[O-])c2ccc(Br)cc12.[Na+].[Na+]` [Example 13, disodium (Z)-4-(5-bromo-3-(1-cyano-2-(5-cyano-2-methoxyphenyl)vinyl)-1H-indol-1-yl)-4-oxobutylphosphonate]: the solubility at 24 h in data set [1] (setting [3]) was 19 µM; in data set [1] (setting [2]), 45 µM. The compound `COc1ccc(C#N)cc1/C=C(\C#N)c1cn(C(=O)CCP(=O)(O)O)c2ccc(Br)cc12` [Example 2, (Z)-3-(5-bromo-3-(1-cyano-2-(5-cyano-2-methoxyphenyl)vinyl)-1H-indol-1-yl)-3-oxopropylphosphonic acid] returned a solubility at 24 h in data set [1] (setting [2]) of 12 µM (≈ 6.17 µg/mL). As for `COc1ccc2c(/C(C#N)=C/c3cc(C#N)ccc3OC)cn(C(=O)CCCCCCP(=O)([O-])O)c2c1.[Na+]` [Example 12, sodium (Z)-hydrogen7-(3-(1-cyano-2-(5-cyano-2-methoxyphenyl)vinyl)-6-methoxy-1H-indol-1-yl)-7-oxoheptylphosphonate], the solubility at 24 h was 109 µM in data set [1] (setting [3]) and 465 µM in data set [1] (setting [2]).

Consider `COc1ccc(C#N)cc1/C=C(\C#N)c1cn(C(=O)CCCCP(=O)(O)O)c2ccc(Br)cc12` [Example 1, (Z)-5-(5-bromo-3-(1-cyano-2-(5-cyano-2-methoxyphenyl)vinyl)-1H-indol-1-yl)-5-oxopentylphosphonic acid], for which the concentration in solution in data set [1] (setting [2]) (solubility at 24 h) came to 497 µM (≈ 270 µg/mL). `COc1ccc2c(/C(C#N)=C/c3cc(C#N)ccc3OC)cn(C(=O)CCCCP(=O)(O)O)c2c1` [Example 4, (Z)-5-(3-(1-cyano-2-(5-cyano-2-methoxyphenyl)vinyl)-6-methoxy-1H-indol-1-yl)-5-oxopentylphosphonic acid]: the concentration in solution in data set [1] (setting [2]) (solubility at 24 h) came to 33 µM (≈ 16.3 µg/mL). For `COc1ccc(C#N)cc1/C=C(\C#N)c1cn(C(=O)CCCP(=O)(O)O)c2ccc(Br)cc12` [Example 16, (S)-2,6-diaminohexanoic acid compound with (Z)-4-(5-bromo-3-(1-cyano-2-(5-cyano-2-methoxyphenyl)vinyl)-1H-indol-1-yl)-4-oxobutylphosphonic acid (2:1)], the solubility at 24 h in data set [1] (setting [3]) is less than 10 µM; in data set [1] (setting [2]), 35 µM (≈ 18.5 µg/mL). In turn, `COc1ccc(C#N)cc1/C=C(\C#N)c1cn(C(=O)CCCCP(=O)([O-])[O-])c2ccc(Br)cc12.[Na+].[Na+]` [Example 14, disodium (Z)-5-(5-bromo-3-(1-cyano-2-(5-cyano-2-methoxyphenyl)vinyl)-1H-indol-1-yl)-5-oxopentylphosphonate] had a solubility at 24 h in data set [1] (setting [2]) of 180 µM. `COc1ccc(C#N)cc1/C=C(\C#N)c1cn(C(=O)CCP(=O)([O-])O)c2ccc(Br)cc12.[Na+]` [Example 7, sodium (Z)-hydrogen3-(5-bromo-3-(1-cyano-2-(5-cyano-2-methoxyphenyl)vinyl)-1H-indol-1-yl)-3-oxopropylphosphonate]: the solubility at 24 h in data set [1] (setting [3]) was less than 5 µM; in data set [1] (setting [2]) it was 103 µM.

Regarding `COc1ccc(C#N)cc1/C=C(\C#N)c1cn(C(=O)CCCCCCP(=O)([O-])O)c2ccc(Br)cc12.[Na+]` [Example 10, sodium (Z)-hydrogen7-(5-bromo-3-(1-cyano-2-(5-cyano-2-methoxyphenyl)vinyl)-1H-indol-1-yl)-7-oxoheptylphosphonate], the solubility at 24 h in data set [1] (setting [3]) was 93 µM; in data set [1] (setting [2]) it was 141 µM. For the compound `COc1ccc(C#N)cc1/C=C(\C#N)c1cn(C(=O)OCc2ccc(NC(=O)[C@H](CCCNC(N)=O)NC(=O)[C@@H](NC(=O)CCOCCOCCOCCOCCNC(=O)CCN3C(=O)C=CC3=O)C(C)C)cc2)c2ccc(Br)cc12` [Example 22, [4-[[(2S)-2-[[(2S)-2-[3-[2-[3-(2,5-dioxopyrrol-1-yl)propanoylamino]ethoxy](peg4)propanoylamino]-3-methyl-butanoyl]amino]-5-ureido-pentanoyl]amino]phenyl]methyl 5-bromo-3-[(Z)-1-cyano-2-(5-cyano-2-methoxy-phenyl)vinyl]indole-1-carboxylate], in the data set “physchem”, the solubility stood at 2 µM (≈ 2.36 µg/mL). Take `COc1ccc(C#N)cc1/C=C(\C#N)c1c[nH]c2ccc(Br)cc12` [Example 38 of WO 2014/086964, (Z)-3-(2-(5-bromo-1H-indol-3-yl)-2-cyanovinyl)-4-methoxybenzonitrile, reference compound]: the solubility at 24 h in data set [1] (setting [3]) and in data set [1] (setting [2]) was less than 5 µM throughout. `COc1ccc(C#N)cc1/C=C(\C#N)c1cn(C(=O)CCCCCCP(=O)(O)O)c2ccc(Br)cc12` [Example 3, (Z)-7-(5-bromo-3-(1-cyano-2-(5-cyano-2-methoxyphenyl)vinyl)-1H-indol-1-yl)-7-oxoheptylphosphonic acid] yielded a solubility at 24 h in data set [1] (setting [2]) of 294 µM (≈ 168 µg/mL). `COc1ccc(C#N)cc1/C=C(\C#N)c1cn(C(=O)OCc2ccc(NC(=O)[C@H](CCCNC(N)=O)NC(=O)[C@@H](NC(=O)[C@H](CS(=O)(=O)O)NC(=O)CCOCCOCCOCCOCCNC(=O)CCN3C(=O)C=CC3=O)C(C)C)cc2)c2ccc(Br)cc12` [Example 26] registered a solubility in “physchem” of 175 µM (≈ 233 µg/mL).

The compound `COc1ccc(C#N)cc1/C=C(\C#N)c1cn(C(=O)OCc2ccc(NC(=O)[C@H](CCCNC(N)=O)NC(=O)[C@@H](N)C(C)C)cc2)c2ccc(Br)cc12` [Example 21, hydrochloride] had a solubility in “physchem” of 471 µM.
